Reference: patent US6656911B2, “Serine protease inhibitors” (Cortech, Inc., priority 1994, dated 2003)
pKi: −log10 of the molar value.

Target: T1, elastase derived from human sputum (HSE) (Homo sapiens, UniProt P08246)
T1 construct: prepared from commercially available HSE (875 U/mg protein, SE-563, Elastin Product Co., Inc., Missouri, USA); purchased Elastin Product Co., Inc., Missouri, USA SE-563; host or cells: human sputum (natural enzyme)
T1 sequence (P08246 30-247 limits assumed): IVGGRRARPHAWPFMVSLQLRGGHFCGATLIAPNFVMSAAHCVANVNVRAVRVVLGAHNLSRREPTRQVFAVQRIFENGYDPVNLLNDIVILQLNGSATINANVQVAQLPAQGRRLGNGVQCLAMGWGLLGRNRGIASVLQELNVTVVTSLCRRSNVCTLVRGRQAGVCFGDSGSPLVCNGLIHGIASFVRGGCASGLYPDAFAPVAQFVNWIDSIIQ
Test: In vitro inhibition of elastase (ONO-PO series)
Format: biochemical
Details: substrate N-methoxysuccinyl-Ala-Ala-Pro-Val-p-nitroaniline, 37° C., pH 8.0, IC50 converted to Ki by Dixson plot

| Structure (SMILES) | pKi |
| --- | --- |
| CC(C)C[C@@H]1NC(=O)N(CC(=O)N[C@H](C(=O)c2nnc(C(C)(C)C)o2)C(C)C)C1=O [ONO-PO-708, 4-(S)-(2-Isobutyl)-2,5-imidazolidinedione-N-[1-(2-[5-tert-butyl-1,3,4-oxadiazolyl]carbonyl)-2-(S)-methylpropyl]acetamide] | 6.14 |
| CC(C)C[C@@H]1NC(=O)N(CC(=O)N[C@H](C(=O)c2nnc(C(C)(C)c3ccccc3)o2)C(C)C)C1=O [ONO-PO-709, 4-(S)-(2-Isobutyl)-2,5-imidazolidinedione-N-[1-(2-[5-(α,α-dimethylbenzyl)-1,3,4-oxadiazolyl]carbonyl)-2-(S)-methylpropyl]acetamide] | 7.59 |
| CC(C)[C@H](NC(=O)[C@@H]1CCCN1C(=O)[C@@H](NS(C)(=O)=O)C(C)C)C(=O)c1nnc(C(C)(C)c2ccccc2)o1 [ONO-PO-710, Methylsulfonyl-L-valyl-N-[1-(2-[5-(α,α-dimethylbenzyl)-1,3,4-oxadiazolyl]carbonyl)-2-(S)-methylpropyl]-L-prolinamide] | 8.62 |
| CC(C)[C@H](NC(=O)Cn1c(-c2ccccc2)ncc(N)c1=O)C(=O)c1nnc(C(C)(C)c2ccccc2)o1 [ONO-PO-711, 2-[5-Amino-6-oxo-2-phenyl-1,6-dihydro-1-pyrimidinyl]-N-[1-(2-[5-(α,α-dimethylbenzyl)-1,3,4-oxadiazolyl]carbonyl)-2-(S)-methylpropyl]acetamide] | 8.59 |
| CC(C)[C@H](NC(=O)Cn1c(-c2cccnc2)ncc(N)c1=O)C(=O)c1nnc(C(C)(C)C)o1 [ONO-PO-712, 2-[5-Amino-6-oxo-2-(3-pyridyl)-1,6-dihydro-1-pyrimidinyl]-N-[1-(2-[5-tert-butyl-1,3,4-oxadiazolyl]carbonyl)-2-(S)-methylpropyl]acetamide] | 7.78 |
| CC(C)[C@H](NC(=O)[C@@H]1CCCN1C(=O)[C@@H](NS(C)(=O)=O)C(C)C)C(=O)c1nnc(C(C)(C)C)o1 [ONO-PO-713] | 7.92 |
| CC(C)[C@H](NC(=O)Cn1c(-c2cccnc2)ncc(N)c1=O)C(=O)c1nnc(C(C)(C)c2ccccc2)o1 [ONO-PO-715, 2-[5-Amino-6-oxo-2-(3-pyridyl)-1,6-dihydro-1-pyrimidinyl]-N-[1-(2-[5-(α,α-dimethylbenzyl)-1,3,4-oxadiazolyl]carbonyl)-2-(S)-methylpropyl]acetamide] | 8.45 |
| CC(C)[C@H](NC(=O)CN1C(=O)CN=C(c2ccc(Cl)cc2)c2ccccc21)C(=O)c1nnc(C(C)(C)C)o1 [ONO-PO-717, 2-Oxo-5-(4-chlorophenyl)-1,4-benzodiazepine-N-[1-(2-[5-tert-butyl-1,3,4-oxadiazolyl]carbonyl)-2-(S)-methylpropyl]acetamide] | 7.24 |
| CC(C)[C@H](NC(=O)CN1C(=O)N[C@H](C(C)C)C1=O)C(=O)c1nnc(C(C)(C)C)o1 [ONO-PO-719, 4-(R)-Isopropyl-2,5-imidazolidinedione-N-[1-(2-[5-tert-butyl-1,3,4-oxadiazolyl]carbonyl)-2-(S)-methylpropyl]acetamide] | 6.08 |
| CC(C)[C@H](NC(=O)CN1C(=O)N[C@H](C(C)C)C1=O)C(=O)c1nnc(C(C)(C)c2ccccc2)o1 [ONO-PO-720, 4-(R)-Isopropyl-2,5-imidazolidinedione-N-[1-(2-[5-(α,α-dimethylbenzyl)-1,3,4-oxadiazolyl]carbonyl)-2-(S)-methylpropyl]acetamide] | 7.59 |
| CC(C)[C@H](NC(=O)Cn1c(-c2ccc(F)cc2)nccc1=O)C(=O)c1nnc(C(C)(C)c2ccccc2)o1 [ONO-PO-722, 2-[6-Oxo-2-(4-fluorophenyl)-1,6-dihydro-1-pyrimidinyl]-N-[1-(2-[5-(α,α-dimethylbenzyl)-1,3,4-oxadiazolyl]carbonyl)-2-(S)-methylpropyl]acetamide] | 8.47 |
| CC(C)[C@H](NC(=O)CN1C(=O)N[C@H](Cc2c[nH]c3ccccc23)C1=O)C(=O)c1nnc(C(C)(C)C)o1 [ONO-PO-723, 4-(R)-(3-Indolemethylene)-2,5-imidazolidinedione-N-[1-(2-[5-tert-butyl-1,3,4-oxadiazolyl]carbonyl)-2-(S)-methylpropyl]acetamide] | 6.79 |
| CC(C)[C@H](NC(=O)CN1C(=O)N[C@H](Cc2c[nH]c3ccccc23)C1=O)C(=O)c1nnc(C(C)(C)c2ccccc2)o1 [ONO-PO-724, 4-(R)-(3-Indolemethylene)-2,5-imidazolidinedione-N-[1-(2-[5-(α,α-dimethylbenzyl)-1,3,4-oxadiazolyl]carbonyl)-2-(S)-methylpropyl]acetamide] | 7.84 |
| CC(C)[C@H](NC(=O)Cn1c(-c2ccccc2)cccc1=O)C(=O)c1nnc(C(C)(C)C)o1 [ONO-PO-725, 2-[6-Oxo-2-phenyl-1,6-dihydro-1-pyridinyl]-N-[1-(2-[5-tert-butyl-1,3,4-oxadiazolyl]carbonyl)-2-(S)-methylpropyl]acetamide] | 5.37 |
| CC(C)[C@H](NC(=O)Cn1c(-c2ccccc2)cccc1=O)C(=O)c1nnc(C(C)(C)c2ccccc2)o1 [ONO-PO-726, 2-[6-Oxo-2-phenyl-1,6-dihydro-1-pyridinyl]-N-[1-(2-[5-(α,α-dimethylbenzyl)-1,3,4-oxadiazolyl]carbonyl)-2-(S)-methylpropyl]acetamide] | 6.23 |
| CC(C)[C@H](NC(=O)Cn1c(-c2ccccc2)ncc(N)c1=O)C(=O)c1nnc(C2(C)CC2)o1 [ONO-PO-728, 2-[5-Amino-6-oxo-2-phenyl-1,6-dihydro-1-pyrimidinyl]-N-[1-(2-[5-(1-methylcyclopropyl)-1,3,4-oxadiazolyl]carbonyl)-2-(S)-methylpropyl]acetamide] | 8.06 |
| CC(C)[C@H](NC(=O)Cn1c(-c2ccccc2)nccc1=O)C(=O)c1nnc(C(C)(C)C)o1 [ONO-PO-730, 2-[6-Oxo-2-phenyl-1,6-dihydro-1-pyrimidinyl]-N-[1-(2-[5-tert-butyl-1,3,4-oxadiazolyl]carbonyl)-2-(S)-methylpropyl]acetamide] | 7.63 |
| CC(C)[C@H](NC(=O)Cn1c(-c2ccccc2)nccc1=O)C(=O)c1nnc(C(C)(C)c2ccccc2)o1 [ONO-PO-731, 2-[6-Oxo-2-phenyl-1,6-dihydro-1-pyrimidinyl]-N-[1-(2-[5-α,α-dimethylbenzyl-1,3,4-oxadiazolyl]carbonyl)-2-(S)-methylpropyl]acetamide] | 8.40 |
| CC(C)[C@@H](NC(=O)Cn1c(-c2ccccc2)nccc1=O)C(=O)c1nnc(C(C)(C)C)o1 [ONO-PO-732, 2-[6-Oxo-2-phenyl-1,6-dihydro-1-pyrimidinyl]-N-[1-(2-[5-tert-butyl-1,3,4-oxadiazolyl]carbonyl)-2-(R)-methylpropyl]acetamide] | 7.21 |
| CC(C)[C@H](NC(=O)Cn1c(-c2ccc(F)cc2)nccc1=O)C(=O)c1nnc(C2(C)CC2)o1 [ONO-PO-734, 2-[6-Oxo-2-(4-fluorophenyl)-1,6-dihydro-1-pyrimidinyl]-N-[1-(2-[5-(1-methylcyclopropyl)-1,3,4-oxadiazolyl]carbonyl)-2-(S)-methylpropyl]acetamide] | 7.36 |
| CC(C)[C@H](NC(=O)Cn1c(-c2ccccc2)nccc1=O)C(=O)c1nnc(C2(C)CC2)o1 [ONO-PO-735, 2-[6-Oxo-2-phenyl-1,6-dihydro-1-pyrimidinyl]-N-[1-(2-[5-(1-methylcyclopropyl)-1,3,4-oxadiazolyl]carbonyl)-2-(S)-methylpropyl]acetamide] | 7.58 |
